{"source": "patent US10856562B2", "about": "“Flavor composition and edible compositions containing same” (MARS, INCORPORATED, priority 2013, dated 2020)", "key": {"panelists": {"system": "panelists", "assay": "Consensus attribute scores of flavor enhancers in Uncle Ben's Garden Vegetable Ready rice", "type": "in vivo, human", "parameters": "key to Cooked White Rice / Vegetable Oil / Vegetable Complex / Cooked Green Vegetable / Cooked Corn / Sweet (BASIC TASTES) / Salt (BASIC TASTES) / Mouthdrying (Texture) / Residual Mouthcoating (Texture) / Total Aromatics / Bitter (BASIC TASTES): 15-point scale, 0 = none, 15 = very strong", "details": "for Bitter (BASIC TASTES) / Black Pepper / Cooked Corn / Cooked Green Vegetable / Cooked White Rice / Dehydrated onion/garlic / HVP/Brothy / Mineral/Flint / Mouthdrying (Texture) / Residual Mouthcoating (Texture) / Salt (BASIC TASTES) / Salt Burn (Chemical Feeling Factors) / Sweet (BASIC TASTES) / Total Aromatics / Umami (Chemical Feeling Factors) / Vegetable Complex / Vegetable Oil: rice", "experimental": "Descriptive attributes (e.g., taste, flavor and chemical feeling factors) of three use levels of pGlu-Cys (FE-35), pGlu-Cys-Gly (FE-36), pGlu-Cys-Cys (FE-37), pGlu-Cys-Val (FE-38) and pGlu-Val-Cys (UE-30) flavor composition peptides were determined. The three use levels were as follows: 1.0 ppb, 10.0 ppb and 100.0 ppb.\nData was collected for the attributes of the product in-mouth for the use levels according to the following protocol: • The samples were analyzed for flavor by six to nine members of a panel, trained and experienced in flavor evaluation using the Spectrum™ method. Samples were evaluated across multiple panel sessions. • The strength of each attribute was rated on a 15-point scale, where 0=none and 15=very strong. • This scale incorporates the ability to use tenths of a point and therefore has the potential of 150 scale differentiations. • The scale may be expanded beyond 15 points to include extreme ratings if necessary.\nPreparation of Rice Samples • Each flavor enhancer was tested in Uncle Ben's Garden Vegetable Ready rice matrix at 3 different concentrations: 1 ppb, 10 ppb and 100 ppb. A total of 15 points with flavor enhancers were prepared for sensory evaluation. Additionally, 15 control samples were prepared. Each point had 2 samples (test and control) and was made from one pouch of rice. • Directions to prepare the solutions: • The 15 ready- to eat pouches were microwaved according to the procedure found on the back of the pouch: (1) squeeze pouch to separate rice, (2) tear two inches to vent, (3) heat on High for 90 seconds and (4) remove from microwave using COOL TOUCH area on untorn side. • From each pouch 124.75 g (test sample) and 99.8 g (control) were weighed out. The test sample had the flavor enhancer and/or salt. The control sample only had salt added. • The flavor enhancer and/or salt (non-iodized salt) were weighed in a soufflé cup. The weighed amount of flavor enhancer and/or salt was added to the sub-sampled rice. The rice was stirred and mixed to evenly distribute the salt added. • Some rice was placed back into the soufflé cup, sealed, and the cup was shook to get the flavor enhancer and/or salt that may have been stuck on the walls of the soufflé cup. After shaking the soufflé cup, the rice was added back to the original sub-sampled rice and stirred/mixed again. • Each sample (test and control) was microwaved for another 30 seconds (or until warm) to ensure that the salts/compounds were going completely into the solutions. • All samples (test and control) were tasted at the same temperature. • Each test sample had 0.2% NaCl added and flavor enhancers at the specified concentrations.\nA summary of the concentrations of NaCl and flavor composition peptides in the rice samples is described in table 23. The first value of each cell represents a single sample amount of an ingredient in milligrams, and the second number in parenthesis is a doubling of the ingredient (in grams) for use in a doubled size sample.\nThe panelists evaluated each sample for the attributes described by table 25."}, "panel of trained tasters": {"system": "panel of trained tasters", "assay": "Saltiness of sodium-reduced pasta sauce with peptides, panel of trained tasters", "type": "in vivo, human", "experimental": "Food product compositions were prepared by admixing flavor composition peptide(s) of the present application with food compositions, wherein the level of sodium (NaCl) in the food product compositions was reduced. The level of sodium was reduced by 25%, 50% or 75% compared to food products compositions that were not admixed with flavor composition peptides. The food product compositions comprising the flavor composition peptides were tasted by a panel of trained tasters and the level of saltiness was compared to the control food products.\nThe peptides pGlu-Val-Leu (identified as “SE-13”), pGlu-Val-Cys (identified as “UE-30”) and pGlu-Val-Val (identified as “SE-17”) were tested in Pasta Sauce. The control pasta sauce comprised 540 mg sodium (NaCl) in a 125 g serving."}}, "note": "Square brackets hold non-standard residues; d marks the D form. Ends that are not written are not given here. pGlu = O=C1CC[C@@H](C(=O)O)N1"}
{"substance": "[pGlu]-Cys-Val [FE-38]", "values": [{"measurement": "Cooked green vegetable in rice compared to the Control", "setting": "panelists; 1 & 100 ppb", "result": "low level of cooked green vegetable"}, {"measurement": "Bitter in rice", "setting": "panelists; all samples (1, 10, 100 ppb)", "result": "bitter"}, {"measurement": "Mineral/flint note in rice, not seen in the Control", "setting": "panelists; all samples (1, 10, 100 ppb)", "result": "low mineral/flint note"}, {"measurement": "Mouthdrying in rice, not seen in the Control", "setting": "panelists; all samples (1, 10, 100 ppb)", "result": "have mouthdrying"}, {"measurement": "Salt burn feeling factor in rice compared to the Control", "setting": "panelists; all samples (1, 10, 100 ppb)", "result": "higher"}, {"measurement": "Umami feeling factor in rice compared to the Control", "setting": "panelists; all samples (1, 10, 100 ppb)", "result": "higher"}, {"measurement": "Bitter (BASIC TASTES)", "setting": "panelists; 1.0 ppb (5 ppm)", "result": 0.8}, {"measurement": "Black Pepper", "setting": "panelists; 1.0 ppb (5 ppm)", "result": 1.0}, {"measurement": "Cooked Corn", "setting": "panelists; 1.0 ppb (5 ppm)", "result": 0.8}, {"measurement": "Cooked Green Vegetable", "setting": "panelists; 1.0 ppb (5 ppm)", "result": 0.8}, {"measurement": "Cooked White Rice", "setting": "panelists; 1.0 ppb (5 ppm)", "result": 3.0}, {"measurement": "Dehydrated onion/garlic", "setting": "panelists; 1.0 ppb (5 ppm)", "result": 1.0}, {"measurement": "HVP/Brothy", "setting": "panelists; 1.0 ppb (5 ppm)", "result": 1.0}, {"measurement": "Mineral/Flint", "setting": "panelists; 1.0 ppb (5 ppm)", "result": 1.0}, {"measurement": "Mouthdrying (Texture)", "setting": "panelists; 1.0 ppb (5 ppm)", "result": 1.8}, {"measurement": "Residual Mouthcoating (Texture)", "setting": "panelists; 1.0 ppb (5 ppm)", "result": 1.0}, {"measurement": "Salt (BASIC TASTES)", "setting": "panelists; 1.0 ppb (5 ppm)", "result": 13.8}, {"measurement": "Salt Burn (Chemical Feeling Factors)", "setting": "panelists; 1.0 ppb (5 ppm)", "result": 1.0}, {"measurement": "Sweet (BASIC TASTES)", "setting": "panelists; 1.0 ppb (5 ppm)", "result": 3.5}, {"measurement": "Total Aromatics", "setting": "panelists; 1.0 ppb (5 ppm)", "result": 6.3}, {"measurement": "Umami (Chemical Feeling Factors)", "setting": "panelists; 1.0 ppb (5 ppm)", "result": 2.0}, {"measurement": "Vegetable Complex", "setting": "panelists; 1.0 ppb (5 ppm)", "result": 1.5}, {"measurement": "Vegetable Oil", "setting": "panelists; 1.0 ppb (5 ppm)", "result": 0.8}, {"measurement": "Bitter (BASIC TASTES)", "setting": "panelists; 10.0 ppb (50 ppm)", "result": 1.2}, {"measurement": "Black Pepper", "setting": "panelists; 10.0 ppb (50 ppm)", "result": 1.0}, {"measurement": "Cooked Corn", "setting": "panelists; 10.0 ppb (50 ppm)", "result": 1.0}, {"measurement": "Cooked Green Vegetable", "setting": "panelists; 10.0 ppb (50 ppm)", "result": 0.0}, {"measurement": "Cooked White Rice", "setting": "panelists; 10.0 ppb (50 ppm)", "result": 3.0}, {"measurement": "Dehydrated onion/garlic", "setting": "panelists; 10.0 ppb (50 ppm)", "result": 0.8}, {"measurement": "HVP/Brothy", "setting": "panelists; 10.0 ppb (50 ppm)", "result": 1.0}, {"measurement": "Mineral/Flint", "setting": "panelists; 10.0 ppb (50 ppm)", "result": 1.5}, {"measurement": "Mouthdrying (Texture)", "setting": "panelists; 10.0 ppb (50 ppm)", "result": 2.0}, {"measurement": "Residual Mouthcoating (Texture)", "setting": "panelists; 10.0 ppb (50 ppm)", "result": 1.0}, {"measurement": "Salt (BASIC TASTES)", "setting": "panelists; 10.0 ppb (50 ppm)", "result": 13.0}, {"measurement": "Salt Burn (Chemical Feeling Factors)", "setting": "panelists; 10.0 ppb (50 ppm)", "result": 1.0}, {"measurement": "Sweet (BASIC TASTES)", "setting": "panelists; 10.0 ppb (50 ppm)", "result": 3.3}, {"measurement": "Total Aromatics", "setting": "panelists; 10.0 ppb (50 ppm)", "result": 6.0}, {"measurement": "Umami (Chemical Feeling Factors)", "setting": "panelists; 10.0 ppb (50 ppm)", "result": 2.0}, {"measurement": "Vegetable Complex", "setting": "panelists; 10.0 ppb (50 ppm)", "result": 1.0}, {"measurement": "Vegetable Oil", "setting": "panelists; 10.0 ppb (50 ppm)", "result": 1.0}, {"measurement": "Bitter (BASIC TASTES)", "setting": "panelists; 100 ppb (50 ppm)", "result": 0.8}, {"measurement": "Black Pepper", "setting": "panelists; 100 ppb (50 ppm)", "result": 1.0}, {"measurement": "Cooked Corn", "setting": "panelists; 100 ppb (50 ppm)", "result": 0.8}, {"measurement": "Cooked Green Vegetable", "setting": "panelists; 100 ppb (50 ppm)", "result": 0.8}, {"measurement": "Cooked White Rice", "setting": "panelists; 100 ppb (50 ppm)", "result": 3.0}, {"measurement": "Dehydrated onion/garlic", "setting": "panelists; 100 ppb (50 ppm)", "result": 1.0}, {"measurement": "HVP/Brothy", "setting": "panelists; 100 ppb (50 ppm)", "result": 1.5}, {"measurement": "Mineral/Flint", "setting": "panelists; 100 ppb (50 ppm)", "result": 1.0}, {"measurement": "Mouthdrying (Texture)", "setting": "panelists; 100 ppb (50 ppm)", "result": 2.5}, {"measurement": "Residual Mouthcoating (Texture)", "setting": "panelists; 100 ppb (50 ppm)", "result": 1.0}, {"measurement": "Salt (BASIC TASTES)", "setting": "panelists; 100 ppb (50 ppm)", "result": 13.5}, {"measurement": "Salt Burn (Chemical Feeling Factors)", "setting": "panelists; 100 ppb (50 ppm)", "result": 1.3}, {"measurement": "Sweet (BASIC TASTES)", "setting": "panelists; 100 ppb (50 ppm)", "result": 3.5}, {"measurement": "Total Aromatics", "setting": "panelists; 100 ppb (50 ppm)", "result": 6.5}, {"measurement": "Umami (Chemical Feeling Factors)", "setting": "panelists; 100 ppb (50 ppm)", "result": 3.0}, {"measurement": "Vegetable Complex", "setting": "panelists; 100 ppb (50 ppm)", "result": 1.5}, {"measurement": "Vegetable Oil", "setting": "panelists; 100 ppb (50 ppm)", "result": 0.8}]}
{"substance": "[pGlu]-Val-Leu [SE-13]", "values": [{"measurement": "Saltiness compared to control at 25% reduction", "setting": "panel of trained tasters; 25% sodium reduction, 10 and 1 ppb, n=4", "result": "to control, slightly less salty."}, {"measurement": "Saltiness compared to control", "setting": "panel of trained tasters; control 540 mg Na/serving, test 25, 50, 75% reduction, 10 ppb and 1 ppb, n=4", "result": "Test variables perceived less"}]}
{"substance": "[pGlu]-Val-Val [SE-17]", "values": [{"measurement": "Saltiness compared to control", "setting": "panel of trained tasters; control 540 mg, test 405 mg Na, SE-13 or SE-17 10 ppb, UE-30 1 ppb, n=4", "result": "significantly less salty than"}, {"measurement": "Salt enhancement", "setting": "panel of trained tasters; test 405 mg Na, SE-17 10 ppb, UE-30 1 ppb", "result": "UE-30 did not provide a big"}]}
